Measured values reported in patent publication US20130178413A1, “HCV NS3 PROTEASE INHIBITORS” (priority 2010, published 2013).
Read-outs that look alike come from different tables or passages of the source.

Tests used:
NS3/4A protease gt 3a = NS3/4A protease gt 3a (Hepatitis C virus genotype 3a, UniProt Q81258); test: HCV NS3 protease time-resolved fluorescence (TRF) assay, NS3/4A inhibitory activity (Ki), gt 3a; format: biochemical; settings: genotype 3a NS3/4A; read-out: Enzyme Activity gt 3a Ki
Procedure: (§1) The HCV NS3 protease inhibitory activity of the present compounds may be tested using assays known in the art. One such assay is HCV NS3 protease time-resolved fluorescence (TRF) assay as described below and in International Patent Application Publication WO2006/102087. Other examples of such assays are described in e.g., International Patent Application Publication WO2005/046712. HCV NS3 protease inhibitors, such as those described herein have a Ki less than 50 μM, such as less than 10 μM, and less than 100 nM. Ki is determined by an NS3 protease assay. The assay is performed in a final volume of 100 μl in assay buffer containing 50 mM HEPES, pH 7.5, 150 mM NaCl, 15% glycerol, 0.15% TRITON X-100, 10 mM DTT, and 0.1% PEG 8000. NS3 protease is pre-incubated with various concentrations of inhibitors in DMSO for 30 minutes. The reaction is initiated by adding the TRF peptide substrate (final concentration 100 nM). NS3 mediated hydrolysis of the substrate is quenched after 1 hour at room temperature with 100 μl of 500 mM MES, pH 5.5. Product fluorescence is detected using either a VICTOR V2 or FUSION fluorophotometer (Perkin Elmer Life and Analytical Sciences) with excitation at 340 nm and emission at 615 nm with a 400 μs delay. Testing concentrations of different enzyme forms are selected to result in a signal to background ratio (S/B) of 10-30. IC50 values are derived using a standard four-parameter fit to the data. Ki values are derived from IC50 values using the following formula,
(§2) IC50=Ki(1+[S]/KM), Eqn (1),
(§3) where [S] is the concentration of substrate peptide in the reaction and KM is the Michaelis constant. See P. Gallinari et al., 38 BIOCHEM. 5620-32 (1999); P. Gallinari et al., 72 J. VIROL. 6758-69 (1998); M. Taliani et al., 240 ANAL. BIOCHEM. 60-67 (1996).
(§4) One such assay is HCV NS3 protease time-resolved fluorescence (TRF) assay as described below and in Mao et al., Anal Biochem. 373:1-8, 2008 and International Patent Application Publication WO 2006/102087. A NS3 protease assay can be performed, for example, in a final volume of 100 μl assay buffer containing 50 mM HEPES, pH 7.5, 150 mM NaCl, 15% glycerol, 0.15% TRITON X-100, 10 mM DTT, and 0.1% PEG 8000. NS3 and NS4A protease is pre-incubated with various concentrations of inhibitors in DMSO for 30 minutes. The reaction is initiated by adding the TRF peptide substrate (final concentration 100 nM). NS3 mediated hydrolysis of the substrate is quenched after 1 hour at room temperature with 100 μl of 500 mM MES, pH 5.5. Product fluorescence is detected using either a VICTOR V2 or FUSION fluorophotometer (Perkin Elmer Life and Analytical Sciences) with excitation at 340 nm and emission at 615 nm with a 400 μs delay. Testing concentrations of different enzyme forms are selected to result in a signal to background ratio (S/B) of 10-30. IC50 values are derived using a standard four-parameter fit to the data. Ki values are derived from IC50 values using the following formula,
as §3, with “(1996); Mao et al., Analytical Biochemistry 373: 1-8, 2008. Measuring Compound Inhibitory Potency (Replicon EC50 (nM))” for “(1996).”

[1] = target: NS3/4A protease gt 1b A156V (Hepatitis C virus genotype 1b, UniProt P26663, A1182V); test: HCV NS3 protease time-resolved fluorescence (TRF) assay, NS3/4A inhibitory activity (Ki), gt 1b A156V mutant; format: biochemical, hepatitis C virus (HCV)
Procedure: as §1, §2, §3, §4
as §3, with “(1996); Mao et al., Analytical Biochemistry 373: 1-8, 2008. Measuring Compound Inhibitory Potency (Replicon EC50 (nM))” for “(1996).”

NS3/4A protease gt 1b = NS3/4A protease gt 1b (Hepatitis C virus genotype 1b, UniProt P26663); test: HCV NS3 protease time-resolved fluorescence (TRF) assay, NS3/4A inhibitory activity (Ki), gt 1b; format: biochemical; settings: genotype 1b NS3/4A; read-out: Enzyme Activity gt 1b Ki
Procedure: as §1, §2, §3, §4
as §3, with “(1996); Mao et al., Analytical Biochemistry 373: 1-8, 2008. Measuring Compound Inhibitory Potency (Replicon EC50 (nM))” for “(1996).”

gt 1b Replicon = test: HCV replicon assay, compound inhibitory potency (Replicon EC50); format: cell-based; settings: Hepatitis C virus, GT1B
Procedure: Measurement of inhibition by compounds was performed using the HCV replicon system. Several different replicons encoding different HCV genotypes or mutations were used. In addition, potency measurements were made using different formats of the replicon assay, including different ways of measurements and different plating formats. See Jan M. Vrolijk et al., A replicons-based bioassay for the measurement of interferons in patients with chronic hepatitis C, 110 J. VIROLOGICAL METHODS 201 (2003); Steven S. Carroll et al., Inhibition of Hepatitis C Virus RNA Replication by 2′-Modified Nucleoside Analogs, 278(14) J. BIOLOGICAL CHEMISTRY 11979 (2003). However, the underlying principles are common to all of these determinations, and are outlined below.
Stable neomycin phosphotransferase encoding replicon-harboring cell lines were used, so all cell lines were maintained under G418 selection prior to the assay. In some cases the cell lines encoded a luciferase:Neor fusion and could be assayed either directly by determination of RNA copy number, or indirectly through measurement of the luciferase activity.
To initiate an assay, replicon cells were plated in the presence of a dilution series of test compound in the absence of G418. Typically, the assays were performed in a 96-well plate format for manual operation, or a 384 well plate in an automated assay. Replicon cells and compound were incubated for 24-48 hours, depending on the assay. At the end of the assay, cells are washed free of media and compound and then lysed. For direct quantitation, RNA levels were measured by ^32P-probe hybridization and protection, or in a TAQMAN based assay and normalized to cellular cyclophilin A RNA levels. In some cases, luciferase activity was measured using a conventional luciferase assay. In all cases EC50 determinations were calculated as a percent of a DMSO control by fitting the data to a four parameter fit function.

| SMILES | Ki (NS3/4A protease gt 3a) [nM] | Ki [1] [nM] | Ki (NS3/4A protease gt 1b) [nM] | EC50 (gt 1b Replicon; 10% Fetal Bovine Serum, read-out: gt 1b Replicon EC50 10% FBS) [nM] | EC50 (gt 1b Replicon; 50% Normal Human Serum, read-out: gt 1b Replicon EC50 50% NHS) [nM] |
| --- | --- | --- | --- | --- | --- |
| C=C[C@@H]1C[C@]1(NC(=O)[C@@H]1C[C@@H]2CN1C(=O)[C@H](C1CCCC1)NC(=O)O[C@@]1(C)C[C@@H]1CC/C=C/Cn1c(nc3cc(Cl)ccc3c1=O)O2)C(=O)NS(=O)(=O)C1CC1 [Example I-25, (1aS,5S,8S,10R,20E,23aS)-14-chloro-5-cyclopentyl-N-{(1R,2S)-1-[(cyclopropylsulfonyl)carbamoyl]-2-ethenylcyclopropyl}-1a-methyl-3,6,17-trioxo-1,1a,3,4,5,6,9, 10,19,22,23,23a-dodecahydro-8H,17H-7,10-methanocyclo propa[18,19][1,10,3,6, 12]dioxatriazacyclo nonadecino[11,12-b]quinazoline-8-carboxamide] | 41 | 142 | 0.2 | – | – |
| C=C[C@@H]1C[C@]1(NC(=O)[C@@H]1C[C@@H]2CN1C(=O)[C@H](C(C)(C)C)NC(=O)O[C@@]1(C)C[C@@H]1CCCCc1cccc3c1CN(C3)C(=O)O2)C(=O)NS(=O)(=O)C1CC1 [Example I-21, (1aS,5S,8S,10R,22aS)-5-tert-butyl-N-{(1R,2S)-1-[(cyclopropylsulfonyl)carbamoyl]-2-ethenylcyclopropyl}-1a-methyl-3,6,12-trioxo-1,1a,3,4,5,6,9,10,14,19,20,21,22,22a-tetradecahydro-8H-7,10:13,15-dimethano cyclopropa[n][4,13,2,8, 11]benzodioxatriaza cyclohenicosine-8(12H)-carboxamide] | 300 | 8.1 | 1.4 | – | – |
| C=C[C@@H]1C[C@]1(NC(=O)[C@@H]1C[C@@H]2CN1C(=O)[C@H](C1CCCC1)NC(=O)O[C@]1(C)CCC[C@H]1CC/C=C/Cc1c(nc3ccccc3c1OCc1ccccc1)O2)C(=O)NS(=O)(=O)C1CC1 [Example I-17, (3aR,7S,10S,12R,21E, 24aS)-19-(benzyloxy)-7-cyclopentyl-N-{(1R,2S)-1-[(cyclopropylsulfonyl)carbamoyl]-2-ethenylcyclopropyl}-3a-methyl-5,8-dioxo-1,2,3,3a,5,6,7,8,11,12, 20,23,24,24a-tetradeca hydro-10H-9,12-methanocyclopenta[18, 19][1,10,3,6]dioxadiaza cyclononadecino[11,12-b]quinoline-10-carboxamide] | 27.9 | 9.6 | 0.07 | – | – |
| C=C[C@@H]1C[C@]1(NC(=O)[C@@H]1C[C@@H]2CN1C(=O)[C@H](C(C)(C)C)NC(=O)O[C@]1(C)C[C@H]1CCCCc1cccc3c1CN(C3)C(=O)O2)C(=O)NS(=O)(=O)C1CC1 [Example I-20, (1aR,5S,8S,10R,22aR)-5-tert-butyl-N-{(1R,2S)-1-[(cyclopropylsulfonyl)carbamoyl]-2-ethenylcyclopropyl}-1a-methyl-3,6,12-trioxo-1,1a,3,4,5,6,9, 10,14,19,20,21,22,22a-tetradecahydro-8H-7,10:13,15-dimethano cyclopropa[n][4,13,2,8, 11]benzodioxatriaza cyclohenicosine-8(12H)-carboxamide] | 58.3 | 27.2 | 0.02 | – | – |
| CC[C@@H]1C[C@]1(NC(=O)[C@@H]1C[C@@H]2CN1C(=O)[C@H](C(C)(C)C)NC(=O)O[C@]1(C)C[C@H]1CCCCCc1nc3ccc(OC)cc3cc1O2)C(=O)NS(=O)(=O)C1CC1 [Example I-11] | 0.5 | – | 0.03 | 4 | 7 |
| C=C[C@@H]1C[C@]1(NC(=O)[C@@H]1C[C@@H]2CN1C(=O)[C@H](C(C)(C)C)NC(=O)O[C@@]1(C)C[C@@H]1CCCCCc1nc3ccccc3nc1O2)C(=O)NS(=O)(=O)C1CC1 [Example I-9, (1aS,5S,8S,10R,22aS)-5-tert-butyl-N-{(1R,2S)-1-[(cyclopropylsulfonyl)carbamoyl]-2-ethenylcyclopropyl}-1a-methyl-3,6-dioxo-1,1a,3,4,5,6,9,10,18,19, 20,21,22,22a-tetra decahydro-8H-7,10-methanocyclopropa[18, 19][1,10,3,6]dioxadiaza cyclononadecino[11,12-b]quinoxaline-8-carboxamide] | 12.5 | – | 0.06 | – | – |
| C=C[C@@H]1C[C@]1(NC(=O)[C@@H]1C[C@@H]2CN1C(=O)[C@H](C(C)(C)C)NC(=O)O[C@@]1(C)C[C@@H]1CC/C=C/c1cccc3c1CN(C3)C(=O)O2)C(=O)NS(=O)(=O)C1CC1 [Example I-14, (1aS,5S,8S,10R,19E,22aS)-5-tert-butyl-N-{(1R,2S)-1-[(cyclopropylsulfonyl)carbamoyl]-2-ethenylcyclopropyl}-1a-methyl-3,6,12-trioxo-1,1a,3,4,5,6,9, 10,14,21,22,22a-dodecahydro-8H-7,10:13,15-dimethano cyclopropa[n][4,13,2,8, 11]benzodioxatriaza cyclohenicosine-8(12H)-carboxamide] | 112 | 6.3 | 0.08 | – | – |
| C=C[C@@H]1C[C@]1(NC(=O)[C@@H]1C[C@@H]2CN1C(=O)[C@H](C1CCCC1)NC(=O)O[C@@]1(C)C[C@@H]1CC/C=C/Cn1c(nc3cc(C)ccc3c1=O)O2)C(=O)NS(=O)(=O)C1CC1 [Example I-22, (1aS,5S,8S,10R,20E,23aS)-5-cyclopentyl-N-{(1R,2S)-1-[(cyclopropylsulfonyl)carbamoyl]-2-ethenylcyclopropyl}-1a,14-dimethyl-3,6,17-trioxo-1,1a,3,4,5,6,9,10,19,22,23,23a-dodecahydro-8H,17H-7,10-methano cyclopropa[18,19] [1,10,3,6,12]dioxatriaza cyclononadecino[11,12-b]quinazoline-8-carboxamide] | 82.2 | 135 | 0.3 | – | – |
